We go through 15 compounds from patent publication US11279678B2 (SHANGHAI ECUST BIOMEDICINE CO., LTD., priority 2017, dated 2022).

As usually defined, the LD50 is the dose at which mortality reaches 50%.

For data set [1], the system named is Hela cervical cancer cell line. Nature of the data set: In vitro proliferation inhibition of Hela cervical cancer cell line (MTT method). The data set is classed as cell-based. The settings on record: for IC50: Hela cervical cancer cell line. The procedure: Evaluation of In Vitro Antitumor Activity of Hela Cervical Cancer Tumor Cell Lines with Compounds (MTT Method)
The cells were cultured in RPMI1640 medium containing 200 mL/L fetal bovine serum so that the cells were kept at logarithmic growth. The cells were inoculated to 96-well plate, with a density of 4˜8×10^4/ml, 37° C., and pre-cultured for 24 hours with added drugs. The drugs were set at 6 concentrations, each has 3 holes. After 48 hours of consequent effect, the nutrient solution was then removed and the cells were left for air-drying. Each hole was then added with cold 500 g/L trichloroacetic acid (TCA) 50 μL (final concentration of 100 g/L). After setting for 60 minutes, it was then rinsed for 4-5 times with ionized water and dried. Each hole then was added with 4 g/L SRB 100 μL left for 30 mins. Then it was rinsed with 10 mL/L acetic acid for 4 times, dried. Then 10 mmol Tris-base 200 μL per hole was added, then shaked and mixed, subsequently, oscillating on the plate oscillator for 5 min. The enzyme-linked immunoassay was used to determine the A value. To calibrate, a blank control was used, with a wavelength of 490 nm. Tumor inhibition rate (%)=(Average A value of the control cell hole−Average A value of the drugged hole A)/Average A value of the control cell hole×100%. The positive control cell holes were CA4, CB1, and CB1N. To calculate the IC50 value, the Logit method was used according to the cell growth inhibition rate of different concentrations of the drug.

For data set [2], the system named is human gastric cancer cell MGC-803. Nature of the data set: In vitro antitumor activity on tumor cell lines (CCK-8 method), MGC-803. Type of data set: cell-based. Conditions: MGC-803, 72 hours. The method, then:
(§1) Evaluation of In Vitro Antitumor Activity of Compounds on Multiple Tumor Cell Lines (CCK-8 Method)
(§2) Take the living cells with more than 90% cells for testing. The cell proliferation inhibition test was performed using the EnoGeneCell™ Counting Kit-8 (CK-8) cell viability test kit. The cell was digested, counted and prepared into a cell suspension with a concentration of 1×10^5/mL. 100 μL cell suspension (1×10^4 cells per hole) was added to each hole in the 96-well plate. The 96-well plate was cultured in a 37° C., 5% CO2 incubator for 24 hours. With every hole added with 100 μL respective drugged cultured medium, control groups were set up, including negative control group, solvent control group, and positive control group. Each group has 5 holes. The 96-well plates were cultured at 37° C., in 5% CO2 incubator for 72 hours. Afterward, 10 μL CCK-8 solution was added to each hole, and the culture plate was incubated in the incubator for 4 hours, and the OD value at 450 nm was determined by enzyme labeling instrument. The inhibition rate and IC50 value of these compounds on tumor cells such as human gastric cancer cell MGC-803, human liver cancer cell HepG2, human lung cancer cell A549 and human breast cancer cell MDA-MB-231 were calculated.

Data set [3] deals with human liver cancer cell HepG2. Nature of the data set: In vitro antitumor activity on tumor cell lines (CCK-8 method), HepG2. The data set is classed as cell-based. Conditions: HepG2, 72 hours. The procedure:
as §1, §2
A general note: Formazan colour is commonly taken as a measure of viable cells.

Data set [4] relates to human lung cancer cell A549. Nature of the data set: In vitro antitumor activity on tumor cell lines (CCK-8 method), A549. Type of data set: cell-based. The settings on record: A549, 72 hours. The procedure: as §1, §2
The test system of data set [5] is human breast cancer cell MDA-MB-231. Nature of the data set: In vitro antitumor activity on tumor cell lines (CCK-8 method), MDA-MB-231. Type of data set: cell-based. The settings on record: MDA-MB-231, 72 hours. The procedure:
as §1, §2

For data set [6] the following is noted: single intragastric administration, mice.
Method: Acute Toxicity Test of Single Gastric Administration in Mice
Kunming mice (weight 17-22 g, equal male and female) were randomly grouped according to body weight, with 10 mice maximum per dose group in the experiment. […] Given by single intraperitoneal injection and a single intragastric injection, observations were done after 0.25 h, 0.5 h, 1 h, 2 h, 4 h, and 24 h respectively. The mortality rate was recorded. Afterward, the groups were observed once everyday, and the mortality rate was recorded for 14 days. On day 15, the living mice were sacrificed for pathological dissection.
Data set [7] deals with gastric cancer MGC-803 transplanted tumor. Nature of the data set: Antitumor rate of oral administration in mice with MGC-803 transplanted tumor. Type of data set: in vivo. Conditions: for Tumor inhibition rate (%): d0-d12 every 2 days, 7 times, tumor weight; for tumor size course: about 8 days after administration. The method, then: Antitumor rate of oral administration of the compound towards MGC-803 mice with transplanted tumor
After 1 week of adaptation, the mice were inoculated with gastric cancer MGC-803 tumor tissue subcutaneously. After the tumor grew for 100-300 mm^3, the animals were randomly grouped. For the drug group, each group of each compound had 6 mice, and 12 mice were in the control group. The intragastric administration was employed and the dosage of Ii, Ij, Ik and Il was 25 and 50 mg/kg. The positive control was CA4, the administration time was d0, d2, d4, d6, d8, d10, d12 days, 7 times in total. The tumor size was measured 3 times per week, together with mice weight. The mice were executed 14 days after inoculation and the tumor mass was taken and measured for its weight. The tumor inhibition rate was calculated as tumor weight inhibition rate, and the formula is tumor weight inhibition rate %=(1-treatment group average tumor weight/control group average tumor weight)×100%.

[8] abbreviates: Homo sapiens, 48 hours drug exposure, read-out: IC50.
The mark [9] stands for this setting: 48 hours drug exposure, read-out: IC50.

The structures appear in SMILES notation. Where two headings read alike, the source gives them in different places. Where only a bound is given, the exact number is not on record here.

As to `COc1ccc(/C=C\c2cc(OC)c(OC)c(OC)c2)cc1NC(=O)Cn1cc(F)c(=O)[nH]c1=O` [Compound Ia, (Z)-2-(5-fluoro-2,4-dioxo-3,4-dihydropyrimidin-1(2H)-yl)-N-(2-methoxy-5-(3,4,5-trimethoxystyryl)-phenyl)acetamide], the IC50 in data set [1] (setting [8]) was found to be 0.046 µM; in data set [2] (Homo sapiens), 64.2 µM; in data set [3] (Homo sapiens) it was 0.0124 µM; in data set [4] (Homo sapiens), 27.5 µM; in data set [5] (Homo sapiens) it was 112 µM.
Consider `COc1ccc(CCc2cc(OC)c(OC)c(OC)c2)cc1O` [Erianin, reference compound], for which the “LD50” value in data set [6] worked out at 2531 mg/kg.
As to `CCOc1ccc(CCc2cc(OC)c(OC)c(OC)c2)cc1OC(=O)CCn1cc(F)c(=O)[nH]c1=O` [Compound Io, 5-(3,4,5-trimethoxyphenethyl)-2-ethoxyphenyl-3-(5-fluoro-2,4-dioxo-3,4-dihydropyrimidin-1(2H)-yl)propanoate], the IC50 in data set [1] (setting [8]) was 0.0343 µM; in data set [2] (Homo sapiens), 0.609 µM; in data set [3] (Homo sapiens) it was 0.0017 µM; in data set [4] (Homo sapiens) it was 0.0003 µM; in data set [5] (Homo sapiens), 2.57 µM.
As for `COc1ccc(C=Cc2cc(OC)c(OC)c(OC)c2)cc1NC(=O)CCCn1cc(F)c(=O)[nH]c1=O` [Compound Ie, 4-(5-fluoro-2,4-dioxo-3,4-dihydropyrimidin-1(2H)-yl)-N-(5-(3,4,5-trimethoxystyryl)-2-methoxyphenyl)-butanamide], the IC50 in data set [1] (setting [8]) amounted to 0.0688 µM.
In the case of `CCOc1ccc(CCc2cc(OC)c(OC)c(OC)c2)cc1NC(=O)Cn1cc(F)c(=O)[nH]c1=O` [Compound Ig, N-(5-(3,4,5-trimethoxyphenethyl)-2-ethoxyphenyl)-2-(5-fluoro-2,4-dioxo-3,4-dihydropyrimidin-1(2H)-yl)acetamide], the IC50 in data set [1] (setting [8]) was found to be 0.0471 µM; in data set [2] (Homo sapiens), 25.8 µM; in data set [3] (Homo sapiens), 39.4 µM; in data set [4] (Homo sapiens), 59.9 µM; in data set [5] (Homo sapiens), 60.2 µM.
In the case of `O=c1[nH]cc(F)c(=O)[nH]1` [Compound 5-FU, 5-fluorouracil, reference compound], the IC50 in data set [1] (setting [8]) worked out at 0.113 µM; in data set [1] (Homo sapiens, read-out: IC50 values, Hela proliferation inhibition), 0.113 µM; in data set [2] (Homo sapiens), 62.5 µM; in data set [3] (Homo sapiens), 0.004 µM; in data set [4] (Homo sapiens), 34.9 µM; in data set [5] (Homo sapiens), 97 µM.
On to `COc1ccc(CCc2cc(OC)c(OC)c(OC)c2)cc1NC(=O)CCCn1cc(F)c(=O)[nH]c1=O` [Compound If, 4-(5-fluoro-2,4-dioxo-3,4-dihydropyrimidin-1(2H)-yl)-N-(5-(3,4,5-trimethoxyphenethyl)-2-methoxyphenyl)-butanamide], for which the IC50 in data set [1] (setting [8]) turned out to be 0.0288 µM.
The same measure, in the same setting: the figure for `COc1ccc(/C=C\c2cc(OC)c(OC)c(OC)c2)cc1OC(=O)CCCn1cc(F)c(=O)[nH]c1=O` [Compound Im, (Z)-2-methoxy-5-(3,4,5-trimethoxystyryl)-phenyl-4-(5-fluoro-2,4-dioxo-3,4-dihydropyrimidin-1(2H)-yl)butanoate] is 0.03 µM.
Take `COc1ccc(CCc2cc(OC)c(OC)c(OC)c2)cc1NC(=O)Cn1cc(F)c(=O)[nH]c1=O` [Compound Ib, 2-(5-fluoro-2,4-dioxo-3,4-dihydropyrimidin-1(2H)-yl)-N-(5-(3,4,5-trimethoxyphenethyl)-2-methoxyphenyl)-acetamide]: the IC50 in data set [1] (setting [8]) is 0.0291 µM; in data set [2] (Homo sapiens) it was 1.86 µM; in data set [3] (Homo sapiens), < 0.19 µM; in data set [4] (Homo sapiens) it was < 0.19 µM; in data set [5] (Homo sapiens), 3.21 µM.
For `CCOc1ccc(CCc2cc(OC)c(OC)c(OC)c2)cc1NC(=O)CCn1cc(F)c(=O)[nH]c1=O` [Compound Ih, N-(5-(3,4,5-trimethoxyphenethyl)-2-ethoxyphenyl)-3-(5-fluoro-2,4-dioxo-3,4-dihydropyrimidin-1(2H)-yl)propanamide], the IC50 in data set [1] (setting [8]) is > 0.37 µM; in data set [2] (Homo sapiens), 23.2 µM; in data set [3] (Homo sapiens), 171 µM; in data set [4] (Homo sapiens), 15.2 µM; in data set [5] (Homo sapiens) it was 60.6 µM.
Take `COc1ccc(CCc2cc(OC)c(OC)c(OC)c2)cc1NC(=O)CCn1cc(F)c(=O)[nH]c1=O` [Compound Id, 3-(5-fluoro-2,4-dioxo-3,4-dihydropyrimidin-1(2H)-yl) N-(5-(3,4,5-trimethoxyphenethyl)-2-methoxyphenyl)-propanamide]: the IC50 in data set [1] (setting [9]) turned out to be 0.0298 µM; in data set [2], 50.6 µM; in data set [3] it was 110 µM; in data set [4], 38 µM; in data set [5], 70.2 µM.
As for `CCOc1ccc(CCc2cc(OC)c(OC)c(OC)c2)cc1OC(=O)Cn1cc(F)c(=O)[nH]c1=O` [Compound In, 5-(3,4,5-trimethoxyphenethyl)-2-ethoxyphenyl 2-(5-fluoro-2,4-dioxo-3,4-dihydropyrimidin-1(2H)-yl)acetate], the IC50 in data set [1] (setting [8]) was 0.04 µM; in data set [2] (Homo sapiens), 19.3 µM; in data set [3] (Homo sapiens), 468 µM; in data set [4] (Homo sapiens), 4.26 µM; in data set [5] (Homo sapiens), 102 µM.
For `COc1ccc(/C=C\c2cc(OC)c(OC)c(OC)c2)cc1OC(=O)Cn1cc(F)c(=O)[nH]c1=O` [Compound Ii, (Z)-2-methoxy-5-(3,4,5-trimethoxystyryl)-phenyl-2-(5-fluoro-2,4-dioxo-3,4-dihydropyrimidin-1(2H)-yl)acetate], the IC50 is 0.0314 µM in data set [1] (setting [9]); < 0.0003 µM in data set [2]; 0.0228 µM in data set [3]; < 0.0003 µM in data set [4]; 0.4 µM in data set [5]. Further, the “Tumor inhibition rate (%)” value in data set [7] (25 mg/kg intragastric) is listed as 62%; in data set [7] (50 mg/kg intragastric), 85%. The tumor size course result in data set [7] is given as “tendency to shrink”. Besides, the “LD50” value in data set [6] was found to be 1059 mg/kg.
As to `COc1ccc(CCc2cc(OC)c(OC)c(OC)c2)cc1OC(=O)Cn1cc(F)c(=O)[nH]c1=O` [Compound Ij, 2-methoxy-5-(3,4,5-trimethoxyphenethyl)-phenyl-2-(5-fluoro-2,4-dioxo-3,4-dihydropyrimidin-1(2H)-yl)acetate], the IC50 was 0.0323 µM in data set [1] (setting [9]); < 0.0003 µM in data set [2]; 0.141 µM in data set [3]; < 0.0003 µM in data set [4]; 15.4 µM in data set [5]. For the same compound, the entries for the “Tumor inhibition rate (%)” value in data set [7] (25 mg/kg intragastric) and in data set [7] (50 mg/kg intragastric) were 53% and 80%, respectively. In addition, the tumor size course result in data set [7] was “tendency to shrink”. For the same compound, the “LD50” value in data set [6] stood at 1015 mg/kg.
Turning to `COc1ccc(C=Cc2cc(OC)c(OC)c(OC)c2)cc1NC(=O)CCn1cc(F)c(=O)[nH]c1=O` [Compound Ic, 3-(5-fluoro-2,4-dioxo-3,4-dihydropyrimidin-1(2H)-yl)-N-(5-(3,4,5-trimethoxystyryl)-2-methoxyphenyl)-propanamide], the IC50 in data set [1] (setting [8]) was determined as 0.029 µM; in data set [2] (Homo sapiens), 48.5 µM; in data set [3] (Homo sapiens), 150 µM; in data set [4] (Homo sapiens), 57.9 µM; in data set [5] (Homo sapiens) it was 122 µM. In data set [1] (ratio to 5-fluorouracil), the “proliferation inhibitory activity on Hela compared to 5-fluorouracil” value worked out at 4 times. In addition, in data set [1] (ratio to CA4), the “proliferation inhibitory activity on Hela compared to CA4” value is given as 14 times.
